Our source for the EC50, AC50 and CC50 values is ChEMBL document CHEMBL1201862, “PubChem BioAssay data set” (2004).

For experiment [1], the system named is Streptococcus sp. 'group A'. Kind of experiment: growth inhibition of control SK(-) GAS strain, dose response, counter-screen for streptokinase expression inhibitor project, luminescence, kanamycin, BacTiterGlo, confirmation (AID 1900). It is filed as functional, organism-based. In general terms: The purpose of a counterscreen is to sort out artefacts and off-target activity.

For experiment [2], the system named is Streptococcus. Kind of experiment: Group A Streptococcus viability loss, dose response, counter-screen for streptokinase expression inhibitor project, luminescence, BacTiterGlo (AID 1915).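 Also: potency for reduction of bacterial viability or growth.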 In kind it is functional, organism-based.
For experiment [3], the target named is T1, Streptokinase A (Streptococcus pyogenes serotype M1, UniProt P10520).
T1 sequence (P10520 whole entry): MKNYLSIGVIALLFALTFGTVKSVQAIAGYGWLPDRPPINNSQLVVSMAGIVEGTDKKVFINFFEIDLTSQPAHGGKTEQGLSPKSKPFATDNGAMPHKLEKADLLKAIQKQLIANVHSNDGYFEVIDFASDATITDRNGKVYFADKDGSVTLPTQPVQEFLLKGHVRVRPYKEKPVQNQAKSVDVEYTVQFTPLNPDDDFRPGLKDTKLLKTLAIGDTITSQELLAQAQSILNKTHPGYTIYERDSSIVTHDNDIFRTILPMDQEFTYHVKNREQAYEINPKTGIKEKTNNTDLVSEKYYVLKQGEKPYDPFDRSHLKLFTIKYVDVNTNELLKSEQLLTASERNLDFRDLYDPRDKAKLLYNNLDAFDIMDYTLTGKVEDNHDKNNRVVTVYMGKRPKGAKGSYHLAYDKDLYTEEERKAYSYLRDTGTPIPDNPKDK
In words: S. pyogenes streptokinase expression inhibitors, potency, dose response, plasminogen activation absorbance, OD405 (AID 1914).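 Also: secreted streptokinase activity via plasminogen activation per viability signal from cell pellet.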 It is filed as functional, Streptococcus pyogenes M1 GAS.

Experiment [4] is described as follows: cells. In kind it is functional, cell-based.
Experiment [5] is described as follows: cells. In kind it is functional, cell-based. This is another data set of the same source.
The nature of experiment [6]: cytotoxicity toward NIH3T3 fibroblasts, dose response, counter-screen, cell-based, ATP luminescence, mouse fibroblasts (AID 2010).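 Also: cells exposed to compound for about 90 hours before reading.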 It is filed as functional.
A short description of experiment [7]: HepG2 cell cytotoxicity, dose response, cytotoxicity control for Shn3 inhibitor project, CellTiter-Glo, cherry-picked (AID 624134). It is filed as functional, cell-based. For orientation: In ATP-based viability assays light output follows the ATP content of the culture.
Experiment [8] is described as follows: Shn3 3'UTR reporter inhibitors, dose response, cell-based, Clone20 osteoblasts, firefly luciferase, cherry-picked (AID 624132).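 Also: firefly luciferase luminescence from reporter carrying the Shn3 3'UTR in osteoblasts.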 It is filed as functional.
A short description of experiment [9]: inhibitors of intracellular T. cruzi replication, confirmation, NIH3T3 host cells, beta-gal luminescence (AID 2044).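 Also: intracellular parasites grown in NIH/3T3 mouse fibroblasts as host cells; luminescent beta-galactosidase reporter signal from transgenic T. cruzi replicating inside host cells; inhibitors lower the luminescence signal.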 In kind it is functional, cell-based.
Experiment [10] can be described thus: Luminescence Cell-Based Dose Confirmation HTS to Identify Inhibitors of Platelet Dense Granule Release. [Related pubchem assays: 1663 (Primary HTS), 1678 (Summary of Project)]. In kind it is functional.
Experiment [11] addresses Luciferin 4-monooxygenase (Photinus pyralis, UniProt P08659). Kind of experiment: firefly luciferase enzyme inhibitors, dose response, biochemical, luminescence (AID 1891).
Experiment [12] deals with Cytochrome P450 2C19 (Homo sapiens, UniProt P33261). Kind of experiment: Cytochrome panel assay with activity outcomes. Panel member name: p450-cyp2c19 Compounds with AC50 equal or less than 10 uM are considered active. In kind it is functional. The conditions noted are these: read-out: AC50.
Sequence of Cytochrome P450 2C19 (P33261 whole entry): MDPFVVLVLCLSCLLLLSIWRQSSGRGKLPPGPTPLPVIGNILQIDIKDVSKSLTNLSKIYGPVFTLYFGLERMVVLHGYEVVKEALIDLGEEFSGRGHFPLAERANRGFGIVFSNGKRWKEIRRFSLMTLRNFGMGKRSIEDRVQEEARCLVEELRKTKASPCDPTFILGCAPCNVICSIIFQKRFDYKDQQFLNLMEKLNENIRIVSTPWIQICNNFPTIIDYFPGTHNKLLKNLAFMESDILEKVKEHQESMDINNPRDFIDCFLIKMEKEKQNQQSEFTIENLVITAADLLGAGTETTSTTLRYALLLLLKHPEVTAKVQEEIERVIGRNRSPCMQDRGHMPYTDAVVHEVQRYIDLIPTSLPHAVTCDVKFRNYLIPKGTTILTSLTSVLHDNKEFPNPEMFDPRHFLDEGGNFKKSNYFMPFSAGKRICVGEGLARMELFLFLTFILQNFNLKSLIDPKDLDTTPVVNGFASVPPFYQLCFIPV
A short description of experiment [13]: control 3'UTR Renilla luciferase suppression, dose response, counter-screen for Shn3 inhibitor project, cell-based, Clone20-Shn3RL, cherry-picked (AID 624133). In kind it is functional.
A short description of experiment [14]: Luminescence Cell-Based Dose Response HTS to Identify Inhibitors of 5'UTR Stem-Loop Driven Prion Protein mRNA Translation in H4 Neuroglioblastoma Cells. [Related pubchem assays: 1827 (Project Summary), 1813 (Primary HTS)]. It is filed as functional.
Experiment [15] is described as follows: inhibitors of firefly luciferase expression or activity, dose response, H4 neuroglioma cells, luminescence (AID 1990). In kind it is functional, cell-based.
Experiment [16] in a line: inhibitors of SNCA 5'UTR-driven reporter translation, confirmation, H4 neuroglioma cells, luminescence (AID 1988). It is filed as functional, cell-based.
The nature of experiment [17]: HEp-2 cell cytotoxicity, dose response, cytotoxicity control for RSV inhibitor project, HTS (AID 2410). In kind it is functional. Conditions: human respiratory syncytial virus.
Experiment [18] has as its target T2, Heat shock factor protein 1 (Mus musculus, UniProt P38532).
T2 sequence (P38532 whole entry): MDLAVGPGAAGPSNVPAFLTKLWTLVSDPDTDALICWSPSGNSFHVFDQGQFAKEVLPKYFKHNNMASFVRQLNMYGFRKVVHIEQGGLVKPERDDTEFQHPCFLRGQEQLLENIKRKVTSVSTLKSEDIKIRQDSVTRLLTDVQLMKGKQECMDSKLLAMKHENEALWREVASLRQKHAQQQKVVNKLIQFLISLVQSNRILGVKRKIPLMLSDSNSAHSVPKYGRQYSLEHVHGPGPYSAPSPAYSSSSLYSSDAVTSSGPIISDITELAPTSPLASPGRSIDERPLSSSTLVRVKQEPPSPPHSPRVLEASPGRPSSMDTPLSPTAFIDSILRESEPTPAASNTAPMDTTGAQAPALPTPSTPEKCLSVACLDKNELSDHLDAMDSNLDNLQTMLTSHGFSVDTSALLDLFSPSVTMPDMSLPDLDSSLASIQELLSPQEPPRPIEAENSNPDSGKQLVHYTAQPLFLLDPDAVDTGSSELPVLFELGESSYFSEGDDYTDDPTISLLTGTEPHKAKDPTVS
In words: inhibition of MG132-induced HSE-luciferase signal, confirmation, cell-based, NIH3T3, luminescence, dose retest (AID 2382).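 Also: NIH3T3 fibroblasts with HSF1-driven luciferase reporter stressed by proteasome inhibitor MG132; luminescence from HSF1-driven luciferase expression after 8 hours of MG132 stress.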 It is filed as functional.

Activity calls are given as the source filed them. Bounds are passed on as bounds.

Sequence of Luciferin 4-monooxygenase (P08659 whole entry): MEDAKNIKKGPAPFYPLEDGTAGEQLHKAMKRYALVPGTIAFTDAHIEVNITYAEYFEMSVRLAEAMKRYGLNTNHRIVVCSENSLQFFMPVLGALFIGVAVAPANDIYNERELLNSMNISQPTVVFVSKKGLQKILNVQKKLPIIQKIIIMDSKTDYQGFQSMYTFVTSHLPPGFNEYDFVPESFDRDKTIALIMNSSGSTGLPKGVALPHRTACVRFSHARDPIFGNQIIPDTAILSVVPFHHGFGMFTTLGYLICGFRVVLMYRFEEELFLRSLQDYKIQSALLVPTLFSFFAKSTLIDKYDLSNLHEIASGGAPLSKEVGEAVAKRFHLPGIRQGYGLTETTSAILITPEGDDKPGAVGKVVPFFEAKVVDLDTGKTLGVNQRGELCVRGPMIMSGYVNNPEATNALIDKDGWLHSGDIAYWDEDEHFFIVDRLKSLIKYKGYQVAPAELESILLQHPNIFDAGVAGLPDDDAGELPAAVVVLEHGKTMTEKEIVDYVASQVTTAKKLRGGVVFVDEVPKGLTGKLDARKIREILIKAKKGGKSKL

The term EC50 denotes the concentration giving half of the maximal effect. As to `COc1ccc(-c2cc3nc(-c4ccccc4)cc(N4CCCC(O)C4)n3n2)cc1` (centres undefined), the EC50 in [1] was 6.75 µM (active); in experiment [2], 14.3 µM (active); in [3], > 150 µM (not active).

In the case of `COCCn1c(-c2ccc(OC)cc2)cnc1SCC(=O)Nc1ccc(OC)cc1OC`, the EC50 in experiment [4] and in experiment [5] was > 350 µM (not active) in each case.

`CCn1c(SCC(=O)c2cc(C)ccc2C)nc2cc(S(=O)(=O)N3CCOCC3)ccc21`: the EC50 in [4] and in experiment [5] was > 350 µM (not active) throughout.

In general, AC50 refers to the concentration at which the activity in the assay is half-maximal. Regarding `CC(C)(C)n1nnnc1C(c1cccs1)N1CCCC2(CCCCC2)C1` (centres undefined), the values for the EC50 in experiment [6] and in experiment [9] were > 60 µM (not active) and 2.15 µM (active), respectively. In addition, the AC50 in experiment [7] was > 70 µM (inactive); in experiment [8], 21.7 µM (active).

Turning to `CC(C)[C@@H](C(=O)NC1CCCC1)N1C(=O)N2CCc3c([nH]c4ccccc34)[C@@]2(C)C1=O`, the half-maximal effective concentration (EC50) in experiment [1] was 30.2 µM (active); in [2] it was > 150 µM (not active); in [3], > 150 µM (not active).

`O=C(CSc1nnc(-c2ccco2)n1Cc1ccco1)NCc1ccccc1`: the EC50 in experiment [4] and in experiment [5] was > 350 µM (not active) in each case.

Turning to `CCOc1ccc(C2C(C(=O)NC)=C(C)Nc3nc4ccccc4n32)cc1OC` (centres undefined), the EC50 in experiment [10] and in experiment [11] was > 112 µM (not active) each time.

For `CCOC(=O)c1c(NC(S)=NCCc2ccccc2)sc2c1CC(C(C)C)OC2` (centres undefined), the EC50 in [1] was 0.814 µM (active); in [2] it was 15.1 µM (active); in experiment [3] it was > 150 µM (not active).

Turning to `CC(=O)N1CCC(=NNc2nc3ccccc3[nH]2)CC1`, the EC50 was 32.3 µM (active) in experiment [4] and > 350 µM (not active) in experiment [5].

Take `N=c1c2c(-c3ccccc3)c(-c3ccccc3)oc2ncn1Cc1ccco1`: the figures for the half-maximal effective concentration (EC50) in experiment [1], in experiment [2] and in [3] were 6.44 µM (active), 30.3 µM (active) and 17.5 µM (active), respectively.

Consider `COc1ccc(CCNC(=O)c2ccc(CNS(=O)(=O)c3ccc(C(C)(C)C)cc3)cc2)cc1OC`, for which the half-maximal effective concentration (EC50) in experiment [2] was 35.9 µM (active); in experiment [3], > 150 µM (not active).

Take `CC(C)OCCCNCC(O)c1ccccc1` (centres undefined): the concentration for a half-maximal effect (EC50) in [10] and in experiment [11] was > 112 µM (not active) each time.

Turning to `CCn1nnnc1SCC(=O)NC1CCCC1`, in [12], the AC50 is 35.5 µM (inconclusive). Also, the EC50 in experiment [10] and in experiment [11] was > 112 µM (not active) each time.

With `COc1cccc(C(=O)NC(=S)Nc2ccccc2N2CCCCC2)c1`, the half-maximal effective concentration (EC50) in [1] was 57.8 µM (active); in [2], > 150 µM (not active); in experiment [3], 41 µM (active).

As for `Cn1ccnc1SCC(=O)Nc1ccc2c(c1)OC(F)(F)O2`, the EC50 in experiment [10] and in [11] was > 112 µM (not active) in each case.

Take `O=C(Nc1ccccn1)c1c(O)c2cccc3c2n(c1=O)CCC3`: the concentration giving a half-maximal response (EC50) in experiment [10] and in experiment [11] was > 112 µM (not active) throughout.

Consider `COc1ccc(/C=C2/Sc3ccc(C(=O)N4CCc5ccccc5C4)cc3NC2=O)cc1`, for which the concentration giving a half-maximal response (EC50) is 1.73 µM (active) in experiment [1], 4.98 µM (active) in experiment [2] and > 150 µM (not active) in [3].

Regarding `Cc1ccc(-c2cnn(-c3ccccc3)c2N)cc1`, the EC50 in experiment [10] was 2.57 µM (active); in [11], 1.92 µM (active).

As to `COc1ccc(S(=O)(=O)N2CCN(C(=O)c3cc(-c4ccc(Br)cc4)[nH]n3)CC2)cc1OC`, the AC50 in experiment [7] was 55.6 µM (active); in experiment [8], 4.55 µM (active); in [13] it was 4.76 µM (active).

As to `CCCCCOc1ccc(Br)cc1CSC(=N)N`, the AC50 in [7] is 11.3 µM (active); in experiment [8], 1.47 µM (active); in [13] it was 10.5 µM (active).

With `COC(=O)c1ccc(C(C(=O)NCc2ccccc2)N(Cc2ccco2)C(=O)c2cnccn2)cc1` (centres undefined), the EC50 in experiment [4] and in experiment [5] was > 350 µM (not active) in each case.

Take `CCOC(=O)Cc1ccc2sc(-c3ccccc3)nc2c1`: the EC50 in experiment [10] is 2.68 µM (active); in experiment [11], 1.54 µM (active).

Take `CCCn1c2ccccc2c2cnn(CC(=O)NC3CCCC(C)C3C)c(=O)c21` (centres undefined): the 50% effective concentration (EC50) in experiment [4] and in experiment [5] was > 350 µM (not active) each time.

On to `CCCOc1ccc(C2C(C(=O)c3cc4ccccc4o3)=C(O)C(=O)N2c2cc(C)on2)cc1OC` (centres undefined), for which the EC50 in experiment [1] was 1.2 µM (active); in experiment [2] it was 5.24 µM (active); in [3] it was > 150 µM (not active).

Regarding `COc1ccc(CCN2CC(C(=O)NCCc3ccc(C(F)(F)F)cc3)CCC2=O)cc1` (centres undefined), the EC50 in [10] and in experiment [11] was > 112 µM (not active) each time.

Take `CC(C)c1ccc(-c2c(C#N)c(N)nc3c2CCCCC3)cc1`: the EC50 is > 120 µM (not active) in [14]; > 350 µM (not active) in experiment [4]; > 350 µM (not active) in experiment [5]; > 120 µM (not active) in experiment [15]; 41.9 µM (active) in [16].

With `COc1ccccc1N(C)S(=O)(=O)c1ccc(C(=O)Nc2cc(F)ccc2C)cc1`, the AC50 in experiment [7] is > 70 µM (inactive); in experiment [8] it was 13.8 µM (active); in experiment [13], 26.5 µM (active).

For the molecule `COc1ccc(CC(N)c2csc(NC(=O)c3cc(C(C)(C)C)nn3Cc3ccccc3)n2)cc1` (centres undefined), the AC50 was 9.69 µM (active) in [7], 9.53 µM (active) in [8] and 22.9 µM (active) in experiment [13].

In general, CC50 refers to the concentration at which the toxic effect on the cells reaches its halfway point. As for `Cc1ccc(-c2nn(-c3ccccc3)cc2/C=N/n2c(S)nnc2-c2cccs2)cc1`, the results for the EC50 in [1], in experiment [2] and in experiment [3] were 10.3 µM (active), 82.8 µM (active) and 103 µM (active), respectively. In addition, the half-maximal cytotoxic concentration (CC50) in experiment [17] is 14.7 µM (active).

For the molecule `COc1ccc(/C=N/NC(=S)Nc2cc(S(=O)(=O)N3CCOCC3)ccc2N2CCOCC2)cc1O`, the concentration for a half-maximal effect (EC50) in [4] and in experiment [5] was > 350 µM (not active) each time.

For the molecule `O=C(N/N=C/c1cc2cc3c(cc2nc1Cl)OCO3)c1ccncc1`, the concentration for a half-maximal effect (EC50) in [10] was > 112 µM (not active); in [4] it was > 350 µM (not active); in experiment [5] it was > 350 µM (not active); in experiment [11], > 112 µM (not active).

Take `Cc1ccc(/C(O)=C/C=N/c2ccccn2)cc1`: the EC50 in experiment [10] was 5.11 µM (active); in experiment [14], 1.4 µM (active); in [18] it was 4.24 µM (active); in experiment [15] it was 3.18 µM (active); in experiment [16], 0.188 µM (active); in [11] it was 1.64 µM (active).
